# Patent US20180079912A1, “ANTIFOULING MATERIALS” (priority 2013, published 2018)
# Square brackets hold non-standard residues; d marks the D form. Peptide text beside a SMILES is read from it. Phe(4-F) = N[C@@H](Cc1ccc(F)cc1)C(=O)O; Dopa = N[C@@H](Cc1ccc(O)c(O)c1)C(=O)O
# Key:
# [1] = Coating thickness by ellipsometry (Cauchy model); assay type: physicochemical; conditions: Cauchy film model
# Procedure: The thickness of the peptide-based coating was measured using α-SE spectroscopic ellipsometer (J. A. Woollam, Lincoln, Nebr., USA). […] The thickness of the layers and refractive indices were fitted according to the Cauchy model. The coefficients of the Cauchy equation were initially fixed for organic layers (An=1.45, Bn=0.01 and Cn=0), and an angle offset was permitted. Then, the parameters were allowed to be fitted to determine more accurate values.
# [2] = QCM-D real-time adhesion of peptides to Ti sensor (Sauerbrey model); conditions: QCM-D on Ti sensor, 0.5 mg/mL in MeOH, 40 minutes
# Procedure: QCM-D (Q-sense, Biolin Scientific) was used for the study of peptide adhesion onto Ti surface. Measurements were performed in a flow module E1 system. Ti sensors with a fundamental resonant frequency of 5 MHz were also purchased from Q-sense and used as supplied. Prior to each experiment Ti sensors were cleaned with Oxygen/Plasma (Atto, Diener Electronic), followed by rinsing with 2% SDS and TDW and finally dried under N2. All QCM-D experiments were performed under flow-through conditions using a digital peristaltic pump ([…] Peristaltic Pump, IDEX) operating in pushing mode. The studied solutions were injected to the sensor crystal chamber at a rate of 0.1 mL/min. Organic solvent compatible tube and O-ring were used for the flow system. Peptides were dissolved in MeOH to a concentration of 0.5 mg/mL. The data were fitted with Sauerbrey model. According to this model the mass of adhering layer is calculated as […]
# [3] = Layer thickness on Ti evaluated by XPS; assay type: physicochemical; conditions: Ti substrates, prolonged incubation
# Procedure: The X-ray Photoelectron Spectroscopy (XPS) measurements were performed using a Kratos AXIS Ultra X-ray photoelectron spectrometer (Kratos Analytical Ltd., Manchester, UK). Spectra were acquired using the A1-Kα monochromatic X-ray source (1,486.7 eV). Sample take-off angle was 90° (i.e. normal to the analyzer). The vacuum pressure in the analyzing chamber maintained to 2·10^-9 Torr. […] Data analyses were done using the Kratos Vision data reducing processing software (Kratos Analytical Ltd.) and […] Software Ltd.). Using the XPS measurements, it is possible to calculate the thickness of the assembled layers. We have done so using the standard attenuation relations of the photoelectrons emerging from different sample depths. The thickness calculation is based on the Briggs et al. method and others. For the Au substrate, the overlay thickness d (nm) expressed as: […] Calculated, using S. Tougard […] software (http://www.quases.com). Inelastic electron mean free path calculated from the Tanuma, Powell and Penn algorithm [Penn, 1994].
# [4] = AFM topography of mica coated with the peptides; assay type: physicochemical; conditions: coated mica substrate, 0.5 mg/mL in methanol overnight
# Procedure: Freshly cleaved mica surfaces were dipped overnight in different peptide solution at a concentration of 0.5 mg/mL in methanol. Then, the surfaces were washed with fresh methanol and dried under N2.
# [5] = Dynamic water contact angles, tilting-plate method; assay type: physicochemical; conditions: gold substrate after coating
# Procedure: (§1) The wetting properties were further investigated by the tilting-plate method that measured the dynamic contact angles, because it was essential in the confirmation of self-cleaning properties to investigate the dynamic water contact angles and surface free energies. The advancing (yadv) and receding (yrec) water contact angles of f-DOPA-coated substrates were measured, and the contact angle hysteresis (i.e., (yadv-yrec)) of each substrate was calculated. […] A water droplet on the substrate easily rolled off at a tilt angle of 5.31, which is clear evidence of self-cleaning properties. […] In addition, the surface free energy (gS) was calculated based on the Owens-Wendt geometric mean equation that divides the surface free energy into the dispersive (gDS) and polar (gPS) ones.
# [6] = Surface free energy, Owens-Wendt geometric mean equation; assay type: physicochemical; conditions: f-DOPA-coated gold surface; water and diiodomethane
# Procedure: as §1
# The surface free energy (gS; gS=gDS+gPS) of each surface was determined by measuring the contact angles with water and diiodomethane (CH2I2). The surface free energy of the f-DOPA-coated gold surface was calculated to be 0.279 mJ m^−2, and the other substrates have the surface free energies between 0.2 and 0.9 mJ m^−2. These values are extremely low, probably because of both the structural roughness and the incorporated perfluoro groups. For comparison, the surface free energy of a smooth surface modified with CF3 groups in hexagonal close packing was reported to be 6.7 mJ m^−2. […]
# [7] = XPS, SEM and AFM of f-DOPA films; assay type: physicochemical
# Procedure: After 12 h, the substrate was washed with acetonitrile, and the coating process was repeated with a fresh f-DOPA solution.
# [8] = Contact angle measurements of peptide-coated surfaces; assay type: physicochemical; conditions: titanium substrate coated with peptide; bare 43.2°; 0.5 mg/mL in methanol
# Procedure: The clean surfaces were dipped in a peptide solution (0.5 mg/mL in methanol) and left for overnight at RT. Then, they were rinsed extensively with methanol and dried under nitrogen. Contact angle measurements were carried out using a Theta Lite optical tensiometer (Attension, Finland). Each experimental measurement consisted of three repeats, and the reported angles were averaged. […] We chose this concentration of peptide since it formed a substantial coating that gave a good signal in various characterization methods. After incubation, we thoroughly washed the substrate with methanol and dried it under nitrogen. Due to the hydrophobic moieties of the peptides, water could not be used as a solvent system despite its high polarity. We used methanol as the solvent since it dissolved the peptide completely, and at the same time allowed it to adhere the substrate. Since methanol is a toxic solvent, we also examined other solvents with different polarities.
Compound,thickness of the coating by ellipsometry [1] [nm],Density [2] [Kg/m^3],Mass/Area [2] [ng/cm^2],Thickness [2],average thickness of the peptide layer evaluated by XPS [3] [nm],height of spherical-like aggregates (AFM) [4],contact angle hysteresis [5],tilt angle at which a water droplet rolled off [5],surface free energy [6] [mJ m^−2],"film thickness ([7]; f-DOPA coating on gold, from disappearance of Au XPS peaks) [nm]",root-mean-square roughness (AFM) ([7]; f-DOPA film) [nm],contact angle [8] [°]
"COC(=O)[C@H](Cc1ccc(F)cc1)NC(=O)[C@@H](N)Cc1ccc(O)c(O)c1 [Peptide 6, NH2-L-DOPA-L-(4F) Phe-COOMe] (H-[Dopa]-[Phe(4-F)]-OMe)",3.66±0.04,805,13 ± 2,1.7 ± Å,3.82±0.04,1.02-3.65 nm,,,,,,
NC(Cc1ccc(O)c(O)c1)C(=O)OCCC(F)(F)C(F)(F)C(F)(F)C(F)(F)C(F)(F)C(F)(F)C(F)(F)C(F)(F)F (centres unmarked) [f-DOPA],,,,,,,9.91,5.31,0.279,≥ 10,533.92,
NH2-DOPA-L-(F5)Phe(2)-L-(F5)Phe(3)-COOMe [Peptide 5],5.2±0.1,717,27 ± 3,3.4 ± Å,4.2±0.1,1.00-5.00 nm,,,,,,
NH2-L-DOPA-D-(4F)Phe(2)-D-(4F)Phe(3)-COOMe [Peptide 4],,769,45 ± 2,5.6 ± 0.3 Å,4.41±0.03,0.32-0.65 nm,,,,,,
NH2-L-DOPA-D-(4F)Phe(2)-L-(4F)Phe(3)-COOMe [Peptide 3],,760,43 ± 4,5.4 ± 0.5 Å,3.9±0.1,0.20-2.30 nm,,,,,,
NH2-L-DOPA-L(4F)-Phe(2)-L(4F)-Phe(3)-COOMe [Peptide 1],,767 ± 4,72.1 ± 0.4,9.11 ± 0.05 Å,3.9±0.1,0.25-0.50 nm,,,,,,68.1
NH2-L-DOPA-L-(4F)Phe(2)-D-(4F)Phe(3)-COOMe [Peptide 2],,824,57 ± 3,7.3 ± 0.3 Å,4.3±0.1,0.20-0.48 nm,,,,,,
